Measured values reported in patent publication US20240122912A1, “A NANOFORMULATION FOR GLIOMA TREATMENT AND PROCESS FOR ITS PREPARATION THEREOF” (COUNCIL OF SCIENTIFIC AND INDUSTRIAL RESEARCH, priority 2021, published 2024).

Key:
[1] = test system: orthotopic GL261 glioma; assay: Orthotopic glioma model: survivability and tumor lesions; assay type: in vivo, C57BL/6J mice; details: 5 injections, sacrificed on 12th day; H8 8 mg/Kg
Excerpt: Further, to observe the orthotopic brain tumor growth inhibitory efficiency of presently described SR-targeting CH8, we checked survivability among brain tumor-bearing mice following 5 alternate dosing of various treatment groups. Herein, the intraperitoneal injections started on 4th day until 12th day (total 5 injections) since stereotactic-based inoculation of GL261 cells in brain. […] In another set of experiment, animals bearing brain in situ GL261 cells and having 5 injections of various treatments were sacrificed on 12th day to visualize the status of tumor lesions in full brains obtained from respective treatment groups. […] Clearly, the visual effect of respective treatments has reflected on overall survivability of treated mice.

[2] = test system: CHO, HEK293; assay: MTT cytotoxicity assay in non-cancer cells; assay type: cell-based; details: same concentration ranges

## O=C(CCCN1CCC(O)(c2ccc(Cl)cc2)CC1)c1ccc(F)cc1 [H8]
[1]
  Tumor sites / lesions in isolated brains: comparable effect on tumor sites
[2]
  Cytotoxic effects in non-cancer cells: negligible
